Assay results: patent US10421769B2, “Anticancer property studies of chiral palladium N-heterocyclic carbene complexes and process for preparation thereof” (Indian Institute of Technology Bombay, priority 2017, dated 2019)
Like-named read-outs stand apart in the source and are kept apart here. Each block holds one compound with its values, some of them ahead of it.

Experiments:
[1] = system: HCT 116 cell lines; conditions: HCT 116, MTT, 72 hours, Haque et al. Metallomics 2013; read-out: HCT-116 (IC50 value), prior art (b); cited from earlier work
[2] = system: intracellular ROS in MCF-7 cells; assay: Reactive oxygen species (ROS) assay using H2DCFDA, flow cytometry; type: cell-based, human; conditions: MCF-7, 30 μM, 24 h, positive control
Method: Experiment: Reactive oxygen species (ROS) production in cells when treated with (1R,2R,5S)-1c, was estimated by ROS assay using 2′,7′-dichlorodihydrofluorescein diacetate (H2DCFDA). MCF-7 cells (5 mL) were seeded in 60 mm cell culture dishes at a density of 1.5×10^5 cells/mL. After cell attachment, they were incubated with 4 and 8 μM (1R,2R,5S)-1c for 24 h. Cells treated with 30 μM hydrogen peroxide was used as a positive control. Following 24 h of incubation, the cells were processed and analyzed using flow cytometry. The percentage of DCFH-DA positive MCF-7 cells in the absence and presence 4 and 8 μM (1R,2R,5S)-1c was determined by flow cytometry. 30 μM H2O2 was used as a positive control. Data are average of three independent set of experiments and ±indicates S.D.

[3] = system: MCF-7 cells; conditions: MCF-7, one cell cycle, SRB, Ghosh et al. JACS 2007; read-out: MCF-7 (IC50 value), prior art (a); cited from earlier work
[4] = system: HeLa cells; assay: Sulforhodamine B assay, proliferation of HeLa cells; type: cell-based, human; conditions: HeLa cervical cancer cells, 24 h, SRB
Method: (§1) The present invention further provides a Sulforhodamine B assay method for investigating the anti-cancer efficacies of the compounds of the present Pd—NHC series on MCF-7, HeLa, A549, B16-F10 and EMT6/AR1 cancer cell lines and also for a comparative study on normal skin cell line L929 and normal epithelial breast cells MCF10A. The said Sulforhodamine B assay is conducted as per reported method (Skehan et al., J. Natl. Cancer Inst. 1990, 82, 1107).
(§2) Experiment: The anti-proliferative activity of the present palladium N-heterocyclic carbene complexes on two different cancer cell lines MCF-7 and HeLa is tested using Sulforhodamine B assay to reveal their anti-tumor properties. The evaluation of growth inhibition of these complexes is done from their IC50 values for the inhibition of cell growth. The IC50 values are compared with Cisplatin to determine any increase in efficacy.
The seeded cells in 96-well plates are incubated with the complex for 24 h and the assay is performed.
(§3) The data obtained is graphically represented in accompanying FIG. 2.

[5] = system: MCF-7 cells; assay: Live dead assay by flow cytometry using propidium iodide; type: cell-based, human; conditions: MCF-7, 4 μM, 48 h
Method: MCF-7 cells (5 mL) were seeded in 60 mm cell culture dishes at a density of 1.5×10^5 cells/mL. Cells were incubated with 4 and 8 μM (1R,2R,5S)-1c for 48 h for live dead assay. After the required incubation, cells were processed and analyzed by flow cytometry. Percentage of live and dead MCF-7 cells in the absence and presence of 4 and 8 μM (1R,2R,5S)-1c and 4 μM cisplatin was determined by flow cytometry using propidium iodide (PI).

[6] = system: HCT 116 cells; conditions: HCT 116, one cell cycle, SRB, Ghosh et al. JACS 2007; read-out: HCT-116 (IC50 value), prior art (a); cited from earlier work
[7] = system: MCF-7 cells; assay: Sulforhodamine B assay, proliferation of MCF-7 cells; type: cell-based, human; conditions: MCF-7 breast cancer cells, one cell cycle (48 h), SRB
Method: as §1, §2
Method: The effects of present series of palladium N-heterocyclic carbene complexes, such as compounds (1S,2S,5R)-(1-3)b and (1R,2R,5S)-(1-3)b; (1S,2S,5R)-(1, 3)c and (1R,2R,5S)-(1, 3)c on the proliferation of MCF-7 cells after one cell cycle are determined by Sulforhodamine B assay. In particular, 1×10^5 cells/mL are seeded in each well in 96-well plates for 24 h and then incubated without or with different concentrations of these complexes at 37° C. for one cell cycle (48 h). After incubation of cells with the complexes for one cell cycle, cell growth is stopped by the addition of 50% trichloroacetic acid and stained with 0.4% sulforhodamine B dissolved in 1% acetic acid. Unbound dye is removed by washing with 1% acetic acid, and the protein content is determined by measuring absorbance at 520 nm in a Bio-Rad model 680 microplate reader after extracting with 10 mM tris base. IC50 value is calculated as the concentration of the complex that inhibited the proliferation of cells by 50% relative to the untreated control cells. The anticancer activities of the present Pd—NHC compounds are graphically represented in accompanying FIG. 1.
as §3

[8] = system: HeLa cells; conditions: one cell cycle, SRB, Ghosh et al. JACS 2007, read-out: HeLa (IC50 value), prior art (a); cited from earlier work

Compound: C=CCN1C=CN(CCCC)[CH]1[Pd]([Cl])([Cl])[CH]1N(CC=C)C=CN1CCCC (stereo not shown) [Compound 8]
IC50 [1]: 26.5 µM

Compound: CCCCN1C=CN(Cc2ccccc2)[CH]1[Pd]([Cl])([Cl])[CH]1N(CCCC)C=CN1Cc1ccccc1 (stereo not shown) [Compound 9]
IC50 [1]: 6.6 µM

Compound: OO [Compound H2O2, hydrogen peroxide, reference compound]
% of DCFH-DA positive cells [2]: 72 ± 4%

Compound: N.N.[Cl][Pt][Cl] [cisplatin, cis-diammine-dichloroplatinum (II), reference compound]
IC50 [3]: 15 µM
IC50 [4]: 8.5 ± 0.7 µM
Dead % [5]: 8 ± 2%
Live % [5]: 93 ± 4%
IC50 [6]: 16 µM
IC50 ([7]; read-out: IC50 (μM), MCF-7): 14.9 ± 0.4 µM
IC50 [8]: 8 µM

Compound: trans-[1-(1R)-menthyl-4-(ethyl)-1,2,4-triazol-5-ylidene]2PdBr2 [(1R,2R,5S)-1b]
IC50 ([7]; read-out: IC50 (μM), MCF-7): 2.3 ± 1 µM

Compound: trans-[1-(1S)-menthyl-4-(ethyl)-1,2,4-triazol-5-ylidene]2PdBr2 [(1S,2S,5R)-1b]
IC50 ([7]; read-out: IC50 (μM), MCF-7): 2.2 ± 0.1 µM

Now from value to compound:

IC50 ([7]; read-out: IC50 (μM), MCF-7): ~10 µM
Compound: trans-[1-(1R)-menthyl-4-(allyl)-1,2,4-triazol-5-ylidene]2PdBr2 [(1R,2R,5S)-2b]

IC50 ([7]; read-out: IC50 (μM), MCF-7): > 10 µM
Compound: trans-[1-(1R)-menthyl-4-(benzyl)-1,2,4-triazol-5-ylidene]2Pd(OCOCF3)2 [(1R,2R,5S)-3c]

IC50 ([7]; read-out: IC50 (μM), MCF-7): > 10 µM
Compound: trans-[1-(1R)-menthyl-4-(benzyl)-1,2,4-triazol-5-ylidene]2PdBr2 [(1R,2R,5S)-3b]

IC50 ([7]; read-out: IC50 (μM), MCF-7): ~10 µM
Compound: trans-[1-(1S)-menthyl-4-(allyl)-1,2,4-triazol-5-ylidene]2PdBr2 [(1S,2S,5R)-2b]

IC50 ([7]; read-out: IC50 (μM), MCF-7): > 10 µM
Compound: trans-[1-(1S)-menthyl-4-(benzyl)-1,2,4-triazol-5-ylidene]2Pd(OCOCF3)2 [(1S,2S,5R)-3c]

IC50 ([7]; read-out: IC50 (μM), MCF-7): > 10 µM
Compound: trans-[1-(1S)-menthyl-4-(benzyl)-1,2,4-triazol-5-ylidene]2PdBr2 [(1S,2S,5R)-3b]

IC50 ([4]; listed as drawing 40): 2.6 ± 1.6 µM
IC50 ([4]; listed as drawing 47): 2.6 ± 1.6 µM
IC50 ([7]; read-out: IC50 (μM), MCF-7): 0.7 ± 0.005 µM
IC50 ([7]; unit nM printed in cell or sentence, read-out: IC50, MCF-7 (values given in nM)): 0.7 ± 0.005 µM
Compound: trans-[1-(1S)-menthyl-4-(ethyl)-1,2,4-triazol-5-ylidene]2Pd(OCOCF3)2 [(1S,2S,5R)-1c]
